The values that follow are results of earlier work, collected in patent US10663473B2, “Method of identifying a status of a mucosal intestinal epithelial barrier to improve treatment of inflammatory bowel disease” (Maximus Diagnostic Technologies LLC, priority 2016, dated 2020).

For this series, the system named is IBD patients. The note with it: cited from earlier work.

“golimumab: monoclonal antibody to TNF-alpha sold under the trademark Simponi”: the “short-term and long-term clinical response rate” value (all UC patients) is recorded as 50%.
With “vedolizumab: monoclonal antibody that specifically binds to integrin α4β7, sold under the name ENTYVIO by Takeda Pharmaceuticals”, where the note is “particularly for Crohn's disease, compared with anti-TNF agents”, the clinical response rate entry was “low”.
